The values below are quoted from earlier work in patent publication US6443892B1, “Sweat collecting device and methods for use and detection of tampering” (The United States of America as represented by the …, priority 2000, dated 2002).

For data set [1] the following is noted: basic media.
The conditions of data set [2]: hydrophilic dye; hydration of inner pad not reported.

As to `CC(=O)Oc1ccc2c3c1O[C@H]1[C@@H](OC(C)=O)C=C[C@H]4[C@@H](C2)N(C)CC[C@@]341` [heroin], in data set [1], the “earliest collection time with detectable concentrations after drugs placed on outside of membrane” value is on record as “approximately 30 seconds”.
In the case of `CN[C@@H](C)Cc1ccccc1` [methamphetamine], the “earliest collection time with detectable concentrations after drugs placed on outside of membrane” value in data set [1] is on record as “approximately 30 seconds”.
As to `CCN(CC)c1ccc2c(-c3ccccc3C(=O)O)c3ccc(=[N+](CC)CC)cc-3oc2c1.[Cl-]` [rhodamine B], the CFWO through membrane result in data set [2] was “No CFWO was observed”.
